The nature of test [1]: THP-1 cell cytotoxicity, dose response, cytotoxicity control for non-replicating M. tuberculosis project (AID 489025). The format is functional.
A short description of test [2]: Vero E6 cell cytotoxicity, dose response, cytotoxicity control for non-replicating M. tuberculosis project, secondary assay (AID 492998). It is filed as functional, VeroE6. The settings on record: Vero C1008.
Test [3] in a line: non-specific 3'UTR reporter inhibition in Clone20-Shn3RL – cell-based, Renilla luciferase, cherry-picked, counter-screen for Shn3 inhibitor project, dose response (AID 624133). It is filed as functional. (In general: Counterscreens check selectivity or assay interference.)
The nature of test [4]: loss of viability in HepG2 cells – cell-based, CellTiter-Glo, cherry-picked, cytotoxicity control for Shn3 inhibitor project, dose response (AID 624134). It is filed as functional. Background: ATP-based viability assays read luminescence as a measure of living cells.
The nature of test [5]: viability loss in HEK293T cells – cell-based, cherry-picks, cytotoxicity control for HIV Vif inhibitor project, dose response (AID 652208). It is filed as functional.
A further test has as its system CHO. In words: CHO cell viability loss, potency – luminescence, cytotoxicity control for TLR9-MyD88 binding inhibitor project, dose response (AID 588339).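 Further: CHO cells stably coexpressing TLR9 and MyD88 fusions from primary screen; compound exposure lasted 48 hours before viability readout.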 It is filed as functional, cell-based, hamster. The settings on record: Cricetulus griseus.
Test [6] has as its target Nucleotide-binding oligomerization domain-containing protein 2 (Homo sapiens, UniProt Q9HC29). The test is described as follows: inhibition of NOD2 signaling – set 2, SAR follow-up (AID 2475). The format is functional.
For test [7], the target named is T1, Nucleotide-binding oligomerization domain-containing protein 1 (Homo sapiens, UniProt Q9Y239).
T1 sequence (Q9Y239 whole entry): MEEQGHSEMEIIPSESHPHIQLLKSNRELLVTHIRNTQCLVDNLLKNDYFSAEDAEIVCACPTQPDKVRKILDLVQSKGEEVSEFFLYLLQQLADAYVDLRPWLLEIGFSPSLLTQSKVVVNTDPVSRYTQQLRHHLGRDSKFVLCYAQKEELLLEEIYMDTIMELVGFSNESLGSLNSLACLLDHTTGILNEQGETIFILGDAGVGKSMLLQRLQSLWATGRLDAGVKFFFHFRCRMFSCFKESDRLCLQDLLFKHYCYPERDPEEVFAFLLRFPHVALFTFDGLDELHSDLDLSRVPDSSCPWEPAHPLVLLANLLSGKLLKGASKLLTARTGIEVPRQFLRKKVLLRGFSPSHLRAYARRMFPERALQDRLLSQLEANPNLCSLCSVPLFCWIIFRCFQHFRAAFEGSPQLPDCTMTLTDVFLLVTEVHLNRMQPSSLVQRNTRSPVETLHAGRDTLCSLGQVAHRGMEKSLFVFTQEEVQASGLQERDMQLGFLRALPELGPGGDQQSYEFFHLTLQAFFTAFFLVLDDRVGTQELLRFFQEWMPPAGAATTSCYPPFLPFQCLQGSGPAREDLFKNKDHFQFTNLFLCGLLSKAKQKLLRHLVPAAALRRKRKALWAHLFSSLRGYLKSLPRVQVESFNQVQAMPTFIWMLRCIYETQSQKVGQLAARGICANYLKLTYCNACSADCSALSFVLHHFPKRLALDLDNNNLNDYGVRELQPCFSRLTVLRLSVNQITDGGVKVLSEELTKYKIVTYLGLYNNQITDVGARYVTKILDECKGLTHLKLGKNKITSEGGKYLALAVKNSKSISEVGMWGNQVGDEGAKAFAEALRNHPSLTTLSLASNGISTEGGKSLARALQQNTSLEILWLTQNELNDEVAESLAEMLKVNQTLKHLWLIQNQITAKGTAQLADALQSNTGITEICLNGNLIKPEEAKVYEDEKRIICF
The test is described as follows: SAR analysis of compounds that inhibit NOD1 - Set 2. [Related pubchem assays (depositor defined):AID1566, AID1575, AID1578, AID1849, AID1852, AID2333, AID2335, AID2798]. It is filed as functional.

Another test addresses Paired box protein Pax-8 (Homo sapiens, UniProt Q06710). The test is described as follows: PAX8 transcriptional activity inhibition in RMG-I – RMG-I cells, luciferase, cherry-pick, dose response (AID 687027).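 Further: luciferase reporter driven by Pax8 target thyroperoxidase promoter measured by SteadyGlo luminescence.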 The format is functional, cell-based.
The next test has as its system HEK293. In words: SAR analysis of compounds that are cytotoxic to HEK293 - Set 2. [Related pubchem assays (depositor defined):AID1575, AID1578, AID1849, AID2001, AID2333, AID2334, AID2335, AID2337, AID2800]. It is filed as functional, cell-based. The conditions noted are these: Homo sapiens.
For another test, the target named is T2, Interleukin-8 (Homo sapiens, UniProt P10145).
T2 sequence (P10145 whole entry): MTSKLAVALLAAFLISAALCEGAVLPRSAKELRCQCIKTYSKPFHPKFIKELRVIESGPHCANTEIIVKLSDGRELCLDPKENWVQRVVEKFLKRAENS
The test is described as follows: SAR analysis of Tumor necrosis factor alpha (TNF-alpha) induced IL-8 secretion in MCF-7/NOD1 cells - Set 2. [Related pubchem assays (depositor defined):AID1575, AID2250, AID2260]. It is filed as functional, cell-based.

Test [8] has as its target T1, Nucleotide-binding oligomerization domain-containing protein 1. The test is described as follows: SAR analysis of NF-kappaB dependent luciferase using DAP as an inducer - Set 2. [Related pubchem assays (depositor defined):AID1566, AID1575, AID1578, AID1579, AID1849, AID1852, AID2264]. The format is functional.
Test [9] has as its target Ras and Rab interactor 1/Tyrosine-protein kinase ABL1 (Homo sapiens, UniProt P00519+Q13671). In words: biochemical. The format is functional.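 Further: biochemical TR-FRET dose-response test measuring inhibition of binding between Rin1 and Abl proteins.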
Test [10] addresses Transitional endoplasmic reticulum ATPase (Homo sapiens, UniProt P55072). In words: p97 ATPase inhibitors, dose response, biochemical (AID 1534).
In test [11] the target is Transitional endoplasmic reticulum ATPase (Homo sapiens, UniProt P55072, C522A). In words: C522A mutant p97 ATPase inhibitors, dose response, counter-screen for p97 inhibitor project, biochemical, luminescence (AID 1544).
In the next test the target is T3, Caspase-6 (Homo sapiens, UniProt P55212).
T3 sequence (P55212 whole entry): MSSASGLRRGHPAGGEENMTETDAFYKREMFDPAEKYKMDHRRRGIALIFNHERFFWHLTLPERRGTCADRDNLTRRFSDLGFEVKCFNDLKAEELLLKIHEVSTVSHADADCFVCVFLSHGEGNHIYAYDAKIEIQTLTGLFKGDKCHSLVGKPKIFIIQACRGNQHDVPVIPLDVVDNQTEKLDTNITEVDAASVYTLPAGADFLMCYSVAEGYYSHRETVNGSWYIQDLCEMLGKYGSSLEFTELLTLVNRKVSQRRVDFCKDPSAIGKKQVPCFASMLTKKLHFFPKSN
The test is described as follows: inhibition of CASP6 peptide cleavage – biochemical, VEID-R110 fluorescence, cherry-pick, dose response (AID 720632).

Calls of active or inactive are those of the source.

For 3 compounds, CC50, AC50 and IC50 results are on record in ChEMBL document CHEMBL1201862, “PubChem BioAssay data set” (2004).

Transitional endoplasmic reticulum ATPase (Homo sapiens, UniProt P55072), sequence (P55072 whole entry): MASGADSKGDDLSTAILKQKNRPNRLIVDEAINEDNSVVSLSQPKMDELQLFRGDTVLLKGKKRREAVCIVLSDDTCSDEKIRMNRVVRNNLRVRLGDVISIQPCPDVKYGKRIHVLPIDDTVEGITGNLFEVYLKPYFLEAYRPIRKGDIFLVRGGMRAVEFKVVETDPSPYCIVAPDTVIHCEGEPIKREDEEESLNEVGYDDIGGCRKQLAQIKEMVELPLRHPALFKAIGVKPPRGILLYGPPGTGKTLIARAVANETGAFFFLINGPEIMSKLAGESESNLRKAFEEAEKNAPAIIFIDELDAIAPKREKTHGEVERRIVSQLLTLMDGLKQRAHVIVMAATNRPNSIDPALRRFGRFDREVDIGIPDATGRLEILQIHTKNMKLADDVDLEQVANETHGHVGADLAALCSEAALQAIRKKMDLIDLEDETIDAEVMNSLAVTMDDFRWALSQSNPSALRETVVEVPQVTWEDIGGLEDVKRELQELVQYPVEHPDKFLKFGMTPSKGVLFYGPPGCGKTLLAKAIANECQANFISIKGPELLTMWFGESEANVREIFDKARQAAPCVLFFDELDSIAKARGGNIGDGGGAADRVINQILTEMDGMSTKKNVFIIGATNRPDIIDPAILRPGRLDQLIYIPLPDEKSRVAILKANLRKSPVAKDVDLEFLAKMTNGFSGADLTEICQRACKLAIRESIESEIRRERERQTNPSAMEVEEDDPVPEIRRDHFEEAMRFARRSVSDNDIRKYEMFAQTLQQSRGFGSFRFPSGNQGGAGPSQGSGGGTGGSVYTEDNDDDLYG
Nucleotide-binding oligomerization domain-containing protein 2, sequence (Q9HC29 whole entry, the tested form may be a part): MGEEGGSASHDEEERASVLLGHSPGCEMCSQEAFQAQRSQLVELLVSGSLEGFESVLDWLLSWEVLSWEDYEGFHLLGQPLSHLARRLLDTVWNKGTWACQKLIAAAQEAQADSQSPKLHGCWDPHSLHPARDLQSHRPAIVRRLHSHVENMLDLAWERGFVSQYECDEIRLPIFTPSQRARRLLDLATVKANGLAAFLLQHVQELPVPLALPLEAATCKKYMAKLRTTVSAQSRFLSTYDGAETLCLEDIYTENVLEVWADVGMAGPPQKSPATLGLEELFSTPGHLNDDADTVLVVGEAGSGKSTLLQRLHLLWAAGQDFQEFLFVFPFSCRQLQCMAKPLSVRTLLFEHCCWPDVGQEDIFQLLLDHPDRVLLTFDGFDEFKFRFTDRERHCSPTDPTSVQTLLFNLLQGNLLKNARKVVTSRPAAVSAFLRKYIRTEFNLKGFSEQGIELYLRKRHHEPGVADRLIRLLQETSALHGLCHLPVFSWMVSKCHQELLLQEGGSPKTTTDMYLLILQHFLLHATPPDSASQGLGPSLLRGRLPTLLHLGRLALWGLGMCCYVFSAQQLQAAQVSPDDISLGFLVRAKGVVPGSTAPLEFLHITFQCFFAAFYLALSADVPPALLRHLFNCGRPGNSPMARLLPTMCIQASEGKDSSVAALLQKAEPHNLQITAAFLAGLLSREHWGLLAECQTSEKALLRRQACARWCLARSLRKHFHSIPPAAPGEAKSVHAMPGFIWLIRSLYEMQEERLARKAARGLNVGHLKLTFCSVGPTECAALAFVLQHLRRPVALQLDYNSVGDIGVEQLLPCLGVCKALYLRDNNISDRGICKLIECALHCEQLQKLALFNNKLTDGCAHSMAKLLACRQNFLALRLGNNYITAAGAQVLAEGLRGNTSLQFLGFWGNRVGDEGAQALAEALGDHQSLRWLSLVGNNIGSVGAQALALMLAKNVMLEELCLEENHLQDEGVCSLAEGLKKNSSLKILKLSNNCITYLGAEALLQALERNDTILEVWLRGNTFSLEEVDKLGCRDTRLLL
Paired box protein Pax-8, sequence (Q06710 whole entry): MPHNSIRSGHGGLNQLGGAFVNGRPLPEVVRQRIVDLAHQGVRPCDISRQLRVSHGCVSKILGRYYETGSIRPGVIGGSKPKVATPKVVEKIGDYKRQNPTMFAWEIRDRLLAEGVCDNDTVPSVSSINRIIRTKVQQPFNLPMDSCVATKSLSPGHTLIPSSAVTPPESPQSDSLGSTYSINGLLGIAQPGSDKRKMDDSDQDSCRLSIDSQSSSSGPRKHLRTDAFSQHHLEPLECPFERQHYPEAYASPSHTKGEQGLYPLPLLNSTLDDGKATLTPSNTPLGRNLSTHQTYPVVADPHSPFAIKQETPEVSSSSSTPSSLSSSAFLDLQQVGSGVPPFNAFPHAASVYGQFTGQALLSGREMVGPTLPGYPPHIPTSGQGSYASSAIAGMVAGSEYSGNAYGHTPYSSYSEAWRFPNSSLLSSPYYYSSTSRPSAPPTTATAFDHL
Transitional endoplasmic reticulum ATPase (Homo sapiens, UniProt P55072, C522A), sequence (P55072 2-806 C522A limits assumed): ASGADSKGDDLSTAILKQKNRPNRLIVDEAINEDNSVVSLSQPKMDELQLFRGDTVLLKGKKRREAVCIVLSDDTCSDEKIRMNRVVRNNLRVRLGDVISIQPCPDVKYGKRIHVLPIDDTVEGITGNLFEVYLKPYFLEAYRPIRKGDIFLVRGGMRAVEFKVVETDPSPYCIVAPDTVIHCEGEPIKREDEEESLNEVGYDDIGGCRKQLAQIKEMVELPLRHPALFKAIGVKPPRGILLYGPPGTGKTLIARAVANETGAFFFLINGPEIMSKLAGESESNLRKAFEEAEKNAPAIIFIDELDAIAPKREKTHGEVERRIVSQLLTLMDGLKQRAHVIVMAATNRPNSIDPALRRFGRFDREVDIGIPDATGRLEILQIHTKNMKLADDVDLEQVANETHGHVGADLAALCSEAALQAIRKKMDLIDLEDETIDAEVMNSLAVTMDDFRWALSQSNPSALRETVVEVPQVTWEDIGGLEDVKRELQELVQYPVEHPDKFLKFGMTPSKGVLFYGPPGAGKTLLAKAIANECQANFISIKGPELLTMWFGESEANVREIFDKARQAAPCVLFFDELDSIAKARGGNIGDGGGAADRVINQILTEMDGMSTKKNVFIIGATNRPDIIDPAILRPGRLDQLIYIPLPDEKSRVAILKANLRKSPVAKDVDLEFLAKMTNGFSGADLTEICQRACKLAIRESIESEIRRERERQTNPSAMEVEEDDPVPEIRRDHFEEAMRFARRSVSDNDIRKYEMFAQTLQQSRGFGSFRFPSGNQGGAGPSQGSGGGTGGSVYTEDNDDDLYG
Ras and Rab interactor 1/Tyrosine-protein kinase ABL1, sequence (P00519 whole entry): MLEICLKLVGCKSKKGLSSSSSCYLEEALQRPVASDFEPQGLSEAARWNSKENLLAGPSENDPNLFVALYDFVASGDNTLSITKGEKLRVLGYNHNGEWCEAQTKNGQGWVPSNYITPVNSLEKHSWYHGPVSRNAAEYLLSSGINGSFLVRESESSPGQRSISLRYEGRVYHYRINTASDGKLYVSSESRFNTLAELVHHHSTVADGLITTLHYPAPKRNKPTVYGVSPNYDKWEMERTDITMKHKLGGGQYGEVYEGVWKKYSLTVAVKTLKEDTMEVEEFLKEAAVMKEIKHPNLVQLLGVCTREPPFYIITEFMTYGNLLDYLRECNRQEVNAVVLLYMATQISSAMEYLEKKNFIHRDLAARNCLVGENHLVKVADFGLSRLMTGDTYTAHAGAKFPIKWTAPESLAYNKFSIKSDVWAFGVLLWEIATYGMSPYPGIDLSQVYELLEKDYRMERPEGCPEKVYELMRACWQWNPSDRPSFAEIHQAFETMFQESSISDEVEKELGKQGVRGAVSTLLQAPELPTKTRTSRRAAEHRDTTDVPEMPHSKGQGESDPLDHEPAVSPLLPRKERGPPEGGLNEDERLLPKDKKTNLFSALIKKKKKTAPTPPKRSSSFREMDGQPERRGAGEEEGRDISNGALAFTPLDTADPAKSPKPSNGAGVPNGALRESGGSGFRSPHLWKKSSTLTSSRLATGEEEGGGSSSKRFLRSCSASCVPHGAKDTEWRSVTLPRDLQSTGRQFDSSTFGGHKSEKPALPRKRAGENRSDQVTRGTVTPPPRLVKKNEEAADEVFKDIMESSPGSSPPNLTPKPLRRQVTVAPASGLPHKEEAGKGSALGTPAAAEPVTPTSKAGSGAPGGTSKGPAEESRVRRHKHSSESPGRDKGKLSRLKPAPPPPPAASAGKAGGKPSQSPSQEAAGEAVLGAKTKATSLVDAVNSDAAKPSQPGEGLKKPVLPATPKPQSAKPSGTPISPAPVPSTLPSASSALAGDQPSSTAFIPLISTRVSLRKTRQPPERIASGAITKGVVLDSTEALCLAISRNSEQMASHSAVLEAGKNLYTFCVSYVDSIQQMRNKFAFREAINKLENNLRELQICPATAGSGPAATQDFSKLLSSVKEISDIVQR
Ras and Rab interactor 1/Tyrosine-protein kinase ABL1, sequence (Q13671 whole entry): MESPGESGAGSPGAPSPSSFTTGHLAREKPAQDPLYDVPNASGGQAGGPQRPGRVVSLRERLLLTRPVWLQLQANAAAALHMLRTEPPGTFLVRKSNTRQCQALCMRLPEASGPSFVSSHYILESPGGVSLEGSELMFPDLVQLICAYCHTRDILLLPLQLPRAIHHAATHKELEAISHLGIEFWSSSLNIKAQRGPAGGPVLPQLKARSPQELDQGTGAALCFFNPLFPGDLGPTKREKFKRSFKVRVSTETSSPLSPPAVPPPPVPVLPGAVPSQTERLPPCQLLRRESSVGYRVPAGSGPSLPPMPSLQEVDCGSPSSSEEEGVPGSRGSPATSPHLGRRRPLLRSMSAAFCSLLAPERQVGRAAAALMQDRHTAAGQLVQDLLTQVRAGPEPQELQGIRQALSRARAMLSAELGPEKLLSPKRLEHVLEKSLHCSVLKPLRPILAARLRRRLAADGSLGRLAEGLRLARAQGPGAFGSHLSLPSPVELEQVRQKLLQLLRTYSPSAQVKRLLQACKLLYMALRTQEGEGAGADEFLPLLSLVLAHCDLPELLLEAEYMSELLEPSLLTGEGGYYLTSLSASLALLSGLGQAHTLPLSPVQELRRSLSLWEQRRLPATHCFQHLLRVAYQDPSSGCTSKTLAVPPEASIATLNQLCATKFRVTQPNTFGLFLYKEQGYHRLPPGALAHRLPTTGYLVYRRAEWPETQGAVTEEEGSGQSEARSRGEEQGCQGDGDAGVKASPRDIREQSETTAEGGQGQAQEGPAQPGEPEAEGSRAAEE

In the case of `Cn1c(=O)[nH]c(=O)c2c1nc([N+](=O)[O-])n2Cc1ccccc1`, the CC50 (in general, the concentration at which the toxic effect on the cells reaches its halfway point) in test [1] is 3.23 µM (active); in test [2], 6.75 µM (active). Further, the AC50 (in general, the concentration giving half of the maximal activity seen) in test [3] was 5.91 µM (active); in test [4] it was 18.3 µM (active); in test [5], 4.52 µM (active); on Paired box protein Pax-8 it was 3.81 µM (active). For the same compound, the IC50 (commonly the midpoint of a concentration-inhibition curve) in the test on CHO was 2.23 µM (active); in test [6] it was 0.748 µM (active); in [7], 0.785 µM (active); in the test with HEK293, 13.7 µM (active); at Interleukin-8, 3.5 µM (active); in [8], > 25 µM (inactive).
As for `O=C(NC1(O)C(=O)c2ccccc2C1=O)c1c(Cl)cccc1Cl`, the IC50 was 21 µM (inactive) in [9], > 50 µM (not active) in test [10] and > 50 µM (not active) in [11].
Regarding `CCN(c1ccccc1)c1cc2ccccc2c(=O)[nH]1`, the AC50 on Caspase-6 is 5.45 µM (active).
